Reference: ChEMBL document CHEMBL4840360, “Design, Synthesis, and Pharmacological Evaluation of Biaryl-Containing PD-1/PD-L1 Interaction Inhibitors Bearing a Unique Difluoromethyleneoxy Linkage” (J Med Chem, 2021)
Active and inactive are the calls of the source. No cut-off for these calls is given here.

Tests used:
[1] = biological target: T1, Programmed cell death protein 1/Programmed cell death 1 ligand 1 (Homo sapiens, UniProt Q15116+Q9NZQ7); assay: Inhibition of PD-1/PD-L1 interaction (unknown origin) by HTRF assay; format: protein-complex assay
[2] = biological target: T2, Programmed cell death protein 1/Programmed cell death 1 ligand 1 (Mus musculus) (UniProt Q9EP73+Q02242); assay: Inhibition of PD1/PDL1 protein-protein interaction in mouse CD8-positive T cells cocultured with Hepa1-6 cells assessed as increase in ratio of IFNgamma+ CD8+ T cells at 0.75 to 3 uM incubated for 48 hrs in presence of alphaCD3/alphaCD28 and IL-2 stimulation by flow cytometry analysis; format: cell-based; conditions: dose 0.75-3 µM
Hepa1-6 [3] = assay: Antitumor activity against […] Hepa1-6 cells xenografted in C57BL/6 mouse model assessed as increase in infiltration of IFNgamma+ GrzB+ CD8+ T-cells in tumor by flow cytometry analysis; format: functional, cell-based
[4] = biological target: T2, Programmed cell death protein 1/Programmed cell death 1 ligand 1 (Mus musculus); assay: Inhibition of PD1/PDL1 protein-protein interaction in mouse CD8-positive T cells cocultured with Hepa1-6 cells assessed as increase in CD107a expression in CD8+ T cells incubated for 5 hrs in presence of alphaCD3/alphaCD28 and IL-2 stimulation by flow cytometry analysis; format: cell-based; conditions: dose 0.75-3 µM
[5] = biological target: T1, Programmed cell death protein 1/Programmed cell death 1 ligand 1; assay: Inhibition of PD-1/PD-L1 interaction in human Jurkat T cells expressing PD-1 cocultured with CHO cells expressing PD-Ll/TCR assessed as activation of Jurkat cells by luciferase reporter gene assay; format: cell-based
[6] = Antitumor activity against […] Hepa1-6 cells xenografted in C57BL/6 mouse syngeneic model assessed as tumor growth inhibition at 1 mg/kg, IM administered every other day and measured three times per week; format: functional; conditions: Hepa1-6, im, read-out: TGI
[7] = biological target: T2, Programmed cell death protein 1/Programmed cell death 1 ligand 1 (Mus musculus); assay: Inhibition of PD1/PDL1 protein-protein interaction in mouse CD8-positive T cells cocultured with Hepa1-6 cells assessed as increase in ratio of GrzB+ CD8+ T cells at 0.75 to 3 uM incubated for 48 hrs in presence of alphaCD3/alphaCD28 and IL-2 stimulation by flow cytometry analysis; format: cell-based; conditions: dose 0.75-3 µM
[8] = Microsomal stability in mouse assessed as half life; format: ADME; conditions: microsomes
Hepa1-6 [9] = assay: Antitumor activity against […] Hepa1-6 cells xenografted in C57BL/6 mouse model assessed as increase in infiltration of IFNgamma+ CD8+ T-cells in tumor by flow cytometry analysis; format: functional, cell-based
[10] = Half life in rat at 1 mg/kg, iv; format: ADME, organism-based; conditions: in vivo
[11] = biological target: T2, Programmed cell death protein 1/Programmed cell death 1 ligand 1 (Mus musculus); assay: Inhibition of PD1/PDL1 protein-protein interaction in mouse CD8-positive T cells cocultured with Hepa1-6 cells assessed as increase in ratio of IFNgamma+ GrzB+ CD8+ T cells at 0.75 to 3 uM incubated for 48 hrs in presence of alphaCD3/alphaCD28 and IL-2 stimulation by flow cytometry analysis; format: cell-based; conditions: dose 0.75-3 µM
[12] = AUClast in rat at 1 mg/kg, iv; format: ADME, organism-based; parameters: time 0 - last, route intravenous, dose 1 mg/kg; conditions: in vivo
[13] = Microsomal stability in mouse assessed as clearance; format: ADME; conditions: microsomes
Hepa1-6 [14] = assay: Antitumor activity against […] Hepa1-6 cells xenografted in C57BL/6 […] mouse model assessed as tumor growth inhibition at 1 mg/kg, IM administered every other day and measured three times per week; format: functional, organism-based
[15] = Observed volume of distribution at steady state in rat at 1 mg/kg, iv; format: ADME, organism-based; conditions: in vivo, read-out: Vdss
Hepa1-6 [16] = assay: Antitumor activity against […] Hepa1-6 cells xenografted in C57BL/6 mouse model assessed as increase in infiltration of GrzB+ CD8+ T-cells in tumor by flow cytometry analysis; format: functional, cell-based
[17] = biological target: T2, Programmed cell death protein 1/Programmed cell death 1 ligand 1 (Mus musculus); assay: Inhibition of PD1/PDL1 protein-protein interaction in mouse CD8-positive T cells cocultured with Hepa1-6 cells assessed as increase in IFNgamma secretion incubated for 48 hrs in presence of alphaCD3/alphaCD28 and IL-2 stimulation by ELISA; format: cell-based; conditions: dose 0.75-3 µM
[18] = Observed clearance in rat at 1 mg/kg, iv; format: ADME, organism-based; conditions: in vivo
[19] = biological target: T1, Programmed cell death protein 1/Programmed cell death 1 ligand 1; assay: Inhibition of PD-1/PD-L1 interaction in human PBMCs cocultured with H1299 cells assessed as increase in INFgamma expression at 0.1 uM incubated for 72 hrs in presence of alphaCD3/alphaCD28 by ELISA; format: cell-based; conditions: PBMC
[20] = Tmax in rat at 3 mg/kg, po; format: ADME, organism-based; conditions: in vivo
[21] = AUClast in rat at 3 mg/kg, po; format: ADME, organism-based; parameters: time 0 - last, route oral, dose 3 mg/kg; conditions: in vivo
[22] = Cmax in rat at 3 mg/kg, po; format: ADME, organism-based; parameters: route oral, dose 3 mg/kg; conditions: in vivo

T1 sequence (Q15116 whole entry): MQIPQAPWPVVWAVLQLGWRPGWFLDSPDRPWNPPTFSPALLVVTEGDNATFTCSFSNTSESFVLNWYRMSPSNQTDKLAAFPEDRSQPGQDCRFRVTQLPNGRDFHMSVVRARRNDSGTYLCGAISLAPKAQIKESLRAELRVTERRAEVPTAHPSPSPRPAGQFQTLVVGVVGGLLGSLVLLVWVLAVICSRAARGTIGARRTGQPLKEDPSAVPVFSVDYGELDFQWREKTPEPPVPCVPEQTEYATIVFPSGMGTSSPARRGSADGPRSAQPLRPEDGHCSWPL
T1 sequence (Q9NZQ7 whole entry): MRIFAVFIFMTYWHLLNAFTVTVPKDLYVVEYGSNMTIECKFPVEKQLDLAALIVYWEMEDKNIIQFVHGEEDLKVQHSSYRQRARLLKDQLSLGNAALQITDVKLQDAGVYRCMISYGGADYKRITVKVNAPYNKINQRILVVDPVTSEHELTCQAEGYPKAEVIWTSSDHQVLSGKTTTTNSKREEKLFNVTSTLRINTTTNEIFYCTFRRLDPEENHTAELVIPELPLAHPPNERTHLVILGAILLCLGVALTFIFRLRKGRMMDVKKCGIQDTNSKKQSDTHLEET

CON(C)C(=O)[C@@H]1CCCCN1Cc1cc(Cl)c(OC(F)(F)c2cccc(-c3ccc4c(c3)OCCO4)c2C)cc1OCc1ccnc(C#N)c1
IC50 [1]: > 1000 nM

Cc1cc(OC(F)(F)c2cccc(-c3ccc4c(c3)OCCO4)c2C)cc(OCc2cccc(C#N)c2)c1CNC(CO)(CO)CO
IC50 [1]: 30.5 nM

CC(=O)OCCOC(=O)[C@@H]1CCCCN1Cc1cc(Cl)c(OC(F)(F)c2cccc(-c3ccc4c(c3)OCCO4)c2C)cc1OCc1ccnc(C#N)c1
IC50 [1]: > 1000 nM

Cc1c(-c2ccc3c(c2)OCCO3)cccc1C(F)(F)Oc1cc(OCc2cccc(C#N)c2)c(CNC(C)(CO)CO)cc1Cl
IC50 [1]: 5.93 nM

Cc1c(-c2ccc3c(c2)OCCO3)cccc1C(F)(F)Oc1cc(OCc2ccnc(C#N)c2)c(CNC(CO)(CO)CO)cc1Cl
IC50 [1]: 6.32 nM

Cc1cc(OC(F)(F)c2cccc(-c3ccc4c(c3)OCCO4)c2C)cc(OCc2cccc(C#N)c2)c1CNC(C)(CO)CO
IC50 [1]: 16.3 nM

Cc1c(-c2ccc3c(c2)OCCO3)cccc1C(F)(F)Oc1cc(OCc2ccnc(C#N)c2)c(CN[C@@H]2C(O)O[C@H](CO)[C@@H](O)[C@@H]2O)cc1Cl (some centres not stated)
inhibition [2]: Active
Activity (Hepa1-6 [3]): Active
inhibition [4]: Dose-Dependent Effect
IC50 [5]: 3160 nM
inhibition in vivo at 1 mg/kg [6]: 53.1%
inhibition [7]: Active
IC50 [1]: 10.2 nM
half-life [8]: 1.25 h
Activity (Hepa1-6 [9]): Active
half-life [10]: 4.84 h
inhibition [11]: Active
AUC(0-t) [12]: 464 ng·h/mL
microsomal CLint [13]: 46.1 µL/min/mg
Activity (Hepa1-6 [14]): Active
Vd [15]: 3.92 L/kg
Activity (Hepa1-6 [16]): Active
inhibition [17]: Dose-Dependent Effect
clearance [18]: 40 mL/min/kg
inhibition [19]: Active

Cc1c(-c2ccc3c(c2)OCCO3)cccc1C(F)(F)Oc1cc(OCc2ccnc(C#N)c2)c(CN2CCCC[C@H]2C(=O)N[C@@H]2C(O)O[C@H](CO)[C@@H](O)[C@@H]2O)cc1Cl (some centres not stated)
IC50 [1]: 28.8 nM

CC(=O)OCOC(=O)[C@@H]1CCCCN1Cc1cc(Cl)c(OC(F)(F)c2cccc(-c3ccc4c(c3)OCCO4)c2C)cc1OCc1ccnc(C#N)c1
IC50 [1]: 28.8 nM

Cc1c(-c2ccc3c(c2)OCCO3)cccc1C(F)(F)Oc1cc(OCc2ccnc(C#N)c2)c(CN[C@@H](CO)[C@@H](O)[C@@H](O)[C@H](O)CO)cc1Cl
IC50 [1]: 7.1 nM
half-life [10]: 3.14 h
AUC(0-t) [12]: 141 ng·h/mL
Vd [15]: 18 L/kg
clearance [18]: 131 mL/min/kg
inhibition [19]: Active

Cc1c(-c2ccc3c(c2)OCCO3)cccc1C(F)(F)Oc1cc(OCc2ccnc(C#N)c2)c(CN2CCCC[C@H]2C(=O)O)cc1Cl
Tmax [20]: 2.83 h
AUC(0-t) [21]: 0.701 ng·h/mL
Cmax [22]: 0.698 ng/mL
IC50 [1]: 2.99 nM
half-life [10]: 0.71 h
AUC(0-t) [12]: 117 ng·h/mL
Vd [15]: 5.31 L/kg
clearance [18]: 143 mL/min/kg
inhibition [19]: Active

Cc1c(-c2ccc3c(c2)OCCO3)cccc1C(F)(F)Oc1cc(OCc2cncc(C#N)c2)c(CNC(CO)(CO)CO)cc1Cl
Tmax [20]: 0.33 h
AUC(0-t) [21]: 2.83 ng·h/mL
Cmax [22]: 4.82 ng/mL
IC50 [1]: 5.68 nM
half-life [10]: 1.32 h
AUC(0-t) [12]: 188 ng·h/mL
Vd [15]: 4.18 L/kg
clearance [18]: 89 mL/min/kg
inhibition [19]: Active

Cc1cc(OC(F)(F)c2cccc(-c3ccc4c(c3)OCCO4)c2C)cc(OCc2cccc(C#N)c2)c1CN[C@@H](C(=O)O)[C@H](C)O
IC50 [1]: 54.7 nM

Cc1cc(OCc2cccc(-c3ccc4c(c3)OCCO4)c2C)cc(OCc2cccc(C#N)c2)c1CN[C@H](CO)C(=O)O
IC50 [1]: 48.2 nM
half-life [8]: 1.1 h
half-life [10]: 0.47 h
AUC(0-t) [12]: 142 ng·h/mL
microsomal CLint [13]: 52.5 µL/min/mg
Vd [15]: 1.33 L/kg
clearance [18]: 124 mL/min/kg

Cc1c(-c2ccc3c(c2)OCCO3)cccc1C(F)(F)Oc1cc(OCc2cccc3nonc23)c(CNC(CO)(CO)CO)cc1Cl
IC50 [1]: 7.05 nM

Cc1cc(OC(F)(F)c2cccc(-c3ccc4c(c3)OCCO4)c2C)cc(OCc2cccc(C#N)c2)c1CN[C@H](CO)C(=O)O
IC50 [1]: 31.9 nM

Cc1c(-c2ccc3c(c2)OCCO3)cccc1C(F)(F)Oc1cc(OCc2ccnc(C#N)c2)c(CN2CCCC[C@H]2C(=O)OCC(F)(F)F)cc1Cl
IC50 [1]: > 1000 nM
